What was measured:
[1] = tested on: IL-8 promoter; experiment: Luciferase assay using IL-8 promoter; format: cell-based, human; details: 5-azacytidine (1 μM) and trichosamine A (1 μM)
Method: (§1) Accordingly, the present inventors further examined the function of MEF on transcription of MMP-9 and IL-8. For examining whether MEF directly suppresses transcription of MMP-9 and IL-8, the present inventors performed luciferase assay using MMP-9 and IL-8 promoters. […] In each case, the ordinate represents a relative luciferase activity, and the abscissa represents Basal, A549 cell, a case of adding 1.0 μM MEF, a case of adding 3.0 μM MEF, a case of adding 5.0 μM MEF and a case of adding MEF gene overexpressing cell (clone 71) from the left respectively. In A549 cell, a high luciferase activity of MMP-9 and IL-8 promoters was observed (FIG. 20). […] In each graph, the ordinate represents a relative luciferase activity, and the abscissa represents Basal, A549 cell, a case of adding Est-2 and a case of adding anti-Est-2 from the left respectively.
(§2) The finding of MMP-9 activation with ETS-2 is also backed up by the study on target deletion of Ets-2 using mice [Yamamoto, 1998]. Since MEF is, unlike PU-1, free from a repressor region [Kihara-Negishi, 2001] and interacts with HDAC or Sin3A having a deacetylase activity, the present inventors next assumed that MEF is a competitor with ETS-2 in ets binding sites of these promoters. […]

[2] = tested on: MEF expression; experiment: MEF expression by RT-PCR; format: cell-based, human
Text: Next, since methylcytosine is recognized with methylated DNA bound to protein MeCP2 interacting with HDAC [Ng et al, 1999], the present inventors examined the effect given by the combined use of 5-aza-2′-deoxycytidine (5-azacytidine) as a demethylation agent and tricostatin A as a histone deacylase inhibitor in MEF expression of A549 cell. The results are shown in photographs in place of drawings in FIG. 3. […] GAPDH is shown as a control. In FIG. 3, HEK293 cell, A549 cell and Caco-2 cell are shown from the left side in an upper panel, and A549 cell and Caco-2 cell from the left side in a lower panel. In FIG. 3, DMSO indicates dimethyl sulfoxide, 5-AC indicates 5-azacytidine and TSA indicates tricostatin A respectively. […] The low MEF expression in Hela cell is considered to be attributed to any other unknown mechanism. This is also backed up by the report that Hela cell lacking in known methylation-dependent inhibitor MeCP2 becomes a silence methylation gene using another route including MBD2 [Ng et al., 1999].
Isogene (Nippon Gene) was used in extraction of all RNAs from culture cells. For comparison of various gene expressions of culture cells, RT-PCR was conducted. RNA PCR kit (AMV) ver. 2.1 (TaKaRa) was used for RT-PCR. The methods by which the gene expression identified in the invention are outlined below.
A reverse transcription reaction (at 42° C. for 60 minutes, at 99° C. for 5 minutes, at 5° C. for 5 minutes) was performed using 1 μg of all RNAs extracted from A549 and other cells as templates and oligo dT primers. Thereafter, PCR (at 94° C. for 2 minutes—1 cycle; at 94° C. for 30 seconds, at 58° C. for 30 seconds, at 72° C. for 30 seconds—40 cycles) was performed using an upstream primer (5′-[…]-3,) and a downstream primer (5,-[…]-3′).

[3] = tested on: MMP-9 promoter; experiment: Luciferase assay using MMP-9 promoter; format: cell-based, human; details: 5-azacytidine (1 μM) and trichosamine A (1 μM)
Method: as §1, §2

[4] = tested on: human umbilical vein endothelial cells (HUVECs); experiment: Migration of HUVECs toward serum-free culture supernatant; format: cell-based; details: 8-μm filter, 24 hours; A549 supernatant accelerated migration; bFGF positive control
Text: Successively, it was further examined whether MEF gene overexpression of A549 cells influences metastasis of vessel endothelial cells. […] Human umbilical vein endothelial cells (HUVECs) were inoculated in an upper chamber, and cells migrating in a medium of a lower chamber were observed through a 8-μm filter.
The results are shown in FIG. 17 by photographs in place of drawings. […] In FIG. 18, the ordinate represents a (%) migration activity relative to a non-treated case, and the abscissa represents a non-treated case, a case of bFGF, a case of A549 cell and a case of MEF gene overexpressing cell (clone 71) from the left side respectively.
[…] of a cell suspension containing HUVECs at a concentration of 2.5×10^5 cells/ml was added to an upper layer of a matrigel invasion chamber (BD Biocoat Matrigel) having 8-μm pores. Subsequently, 700 μl of a serum-free culture supernatant produced according to 1. of Example 10 was added to a lower layer. After 24 hours, HUVECs invaded into the lower layer of the membrane filter were stained with hematoxylin, and the number of cells was then counted under a microscope.

[5] = tested on: A549 cells; experiment: Matrigel invasion assay; format: cell-based, human; details: cells passed through 8-μm filter after 24 hours; BB94-treated A549 as comparison
Text: (§3) Moreover, it has been reported that metastasis from epithelium to mesenchyme is induced by lack of E-cadherin or activation of MMPs [Llorens et al., 1998], expression of MMPs and E-cadherin was next examined. The right side in FIG. 5 is a photograph in place of a drawing, showing results of analyzing an MMP-9 protein content of A549 cell and MEF gene overexpressing cell in a serum-free culture supernatant (conditioned media) by western blotting using anti-MMP-9 antibody, and the left side in FIG. 5 is a photograph in place of a drawing, showing results of gelatin-zymography of MMP-9. […] In an upper chamber of FIG. 6, 2.5×10^5 A549 cells (left side), MEF gene overexpressing cells (center) and A549 cells (right side) treated with BB94 were inoculated respectively, and the numbers of cells on the lower side which were passed through a 8-μm filter were counted. […]
200 μl of each cell suspension prepared to a concentration of 1.0×10^6 cells/ml was added to an upper layer of a matrigel invasion chamber (BD Biocoat Matrigel) having 8-μm pores, and 700 μl of a serum-free culture solution was added thereto. After 24 hours, the cells invaded in the lower layer of the membrane filter were stained with hematoxylin, and the number of the cells was then counted under a microscope.

[6] = tested on: A549 cell; experiment: Cell morphology and F-actin staining; format: cell-based, human
Method: In FIG. 4, A549 cell, MEF gene overexpressing […] cell and A549 cell treated with BB94 (10 μM) are shown respectively from the left side.
as §3, with “In order to examine the decrease in MMP-9 activity in MEF gene overexpressing cell, A549 cell was treated with BB94 as an MMP inhibitor. […] Generally, such a morphological change thereof indicates reduction of an invasion activity. Accordingly, for examining an invasive function of A549 cell and MEF gene overexpressing cell, matrigel invasion assay was performed. In” for “In”

**Q.** What does the source list for `CC(/C=C/C(=O)NO)=C\[C@@H](C)C(=O)c1ccc(N(C)C)cc1` [tricostatin A]?
**A.** IL-8 promoter activity [1]: inhibited; MEF expression ([2]; A549 cell, combined use of 5-azacytidine (1 μM) and tricostatin A (300 μM)): clearly increased the MEF expression; MEF expression ([2]; A549 cell, single use of the reagent): increased the MEF expression only slightly; MEF expression ([2]; Caco-2 cell, 5-azacytidine and tricostatin A): same effect was observed; MEF expression ([2]; HEK293 cell, 5-azacytidine and tricostatin A): not in HEK293 and Hela cells; MEF expression ([2]; Hela cell, 5-azacytidine and tricostatin A): not in HEK293 and Hela cells; MMP-9 promoter activity [3]: inhibited

**Q.** How did the “migration of HUVECs” value [4] turn out when “bFGF: basic FGF, positive control for HUVEC migration” was run?
**A.** The value was “increased migration of HUVECs”.

**Q.** How did the invasion activity [5] turn out when `CNC(=O)[C@H](Cc1ccccc1)NC(=O)[C@H](CC(C)C)[C@H](CSc1cccs1)C(=O)NO` [BB94] was run?
**A.** Its invasion activity is “inhibitory effect”.

**Q.** What about the F-actin localization ([6]; MEF gene overexpression or BB94 10 μM) of the same compound?
**A.** Its F-actin localization is “localization of F-actin in the interface between cells”.

**Q.** And the morphological change ([6]; MEF gene overexpression, BB94 10 μM or 5-azacytidine 10 μm)?
**A.** The morphological change was “induced typical morphological change”.
